Entries after “also recorded” stand apart in the source; their conditions may differ.
Experiments:
[1] = tested on: YAP/TEAD4 condensates; assay: Live cell imaging of YAP/TEAD condensates; assay type: cell-based; conditions: H1299 cells co-transfected with YAP5SA, TEAD4-mTagBFP, mNeoGreen-SRC1; 20 μM
Experimental: Cells were grown on 24-well glass bottom plate (Cellvis, P24-1.5H-N) and images were taken with the Leica TCS SP8 confocal microscopy system using a 100× oil objective (NA=1.4). Cells were imaged on a heated stage(37° C.) and supplemented with warmed (37° C.) humidified air.
For compounds treatment assay, SF268 cells were co-transfected with YAP5SA, TEAD4-mTagBFP2 and mNeoGreen-SRC1. YAP variant YAP5SA which is insensitive to the upstream Hippo pathway, sequestered YAP in nucleus. To circumvent the limitations brought by red fluorescent proteins, TEAD condensates which have been reported to depend on YAP, were used to characterize YAP/TEAD transcriptional condensates. Six hours after transfection, SF268 cells were seeded on 24-well glass bottom plate (Cellvis, P24-1.5H-N) and compounds were added two hours later. Cells were imaged every 30 mins after EVG or other compounds were added.
Cells were grown on 24-well glass bottom plate (Cellvis, P24-1.5H-N) and images were taken with the Leica TCS SP8 confocal microscopy system using a 100× oil objective (NA=1.4). Cells were imaged on a heated stage (37° C.) and supplemented with warmed (37° C.) humidified air. […]
Data was analyzed by images collected from 100 representative fields in each group. The spots quantification was performed based on the number and intensity of the spots through green (mNeoGreen-SRC1) and blue (TEAD4-mTagBFP2) channel. […]

[2] = tested on: YAP; assay: ChIP-qPCR of YAP association on YAP target regions; assay type: cell-based, human; conditions: DMSO or elvitegravir
Experimental: FIG. 7J illustrates the association of YAP on YAP targets regions (#1:ANKRD1enhancer, #2:PAWRpromoter, #3:NPPBpromoter, #4:CTGF promoter) were analyzed by ChIP-qPCR from cells treated with DMSO or elvitegravir. Data are representative of 3 independent experiments. Error bars indicate the s.e.m. of triplicate qPCR data.
FIG. 7K illustrates the association of YAP on YAP target regions were analyzed by ChIP-qPCR in SF268 cells treated with EVG or DMSO. Error bars show mean±s.e.m. (n=3).
Briefly, cells were crosslinked with 1% formaldehyde (Sigma) in culture medium for 10 min at room temperature, and chromatin from lysed nuclei was sheared to 200-1000 bp fragments using a Bioruptor® Pico (Diagenode SA). ˜50 μg of sheared chromatin and ˜2 μg of antibody were mixed. […] Quantitative real-time PCR was carried out with QuantStudio™ 6 Flex Real-Time PCR Systems (Thermofisher Scientific). The amount of immunoprecipitated DNA in each sample was determined as the fraction of the input, and normalized to the IgG control. […]
Chromatin immunoprecipitation antibodies are listed in Supplementary […] Supplementary Methods. […] Quantitative real-time PCR was carried out with QuantStudio™ 6 Flex Real-Time PCR Systems (Thermofisher Scientific). The amount of immunoprecipitated DNA in each sample was determined as the fraction of the input, and normalized to the IgG control.

[3] = tested on: SRC-1's binding with YAP and TEAD; assay: FLAG pulldown assay with recombinant proteins; conditions: in vitro pulldown, concentrations up to 400 μM
Experimental: FIG. 7N illustrates purified Flag-SRC-1 protein was mixed with YAP and/or TEAD4 in the presence of increasing concentrations of EVG and was subjected to three independent pull-downs using anti-flag beads.
Three independent pull down assays were performed to detect the direct binding between SRC1 and YAP/TEAD4. Purified FLAG-SRC1 truncated proteins were incubated with YAP, TEAD4 and YAP plus TEAD4 respectively, and further subjected to pull down assays by ANTI-FLAG® M2 Affinity Gel (A2220, Sigma-Aldrich). Elvitegravir was co-incubated with the mixtures at increasing concentrations (0, 50, 200, 400 μM) as indicated. Complexes were washed in PBS buffer and proteins were eluted using 2×SDS loading buffer.

[4] = tested on: A549 cells; assay: Anti-proliferative effects in SRC-1 knockdown A549 cells; assay type: cell-based; conditions: SRC-1 knockdown vs control
Experimental: FIG. 7W illustrates the anti-proliferative effects of EVG in SRC1 knockdown and control cells. Data represent mean±s.e.m. (n=3).
After 6 days [or other time period as indicated] culture, cell viability was measured using CellTiter-Glo® Luminescent Cell Viability Assay (Promega, G7572) and DMSO group was used as normalization to calculate half maximal inhibitory concentration (IC50) using Graphpad Prism software.

[5] = tested on: BEAS-2B cell colonies; assay: BEAS-2B colonies co-expressing SRC-1 and YAP; assay type: cell-based, human; conditions: SRC-1 and YAP co-expressed BEAS-2B cell colonies
Description: FIG. 7X illustrates the colonies of BEAS-2B cells overexpressing with both YAP and SRC-1 treated w/o EVG.
To explore whether SRC-1 and YAP cooperate in driving tumorigenesis, normal human lung bronchial epithelium cells (BEAS-2B) was transformed with YAP and/or SRC-1.

COc1cc2c(cc1Cc1cccc(Cl)c1F)c(=O)c(C(=O)O)cn2[C@H](CO)C(C)C [EVG, 6-[(3-chloro-2-fluorophenyl)methyl]-1-[(2S)-1-hydroxy-3-methylbutan-2-yl]-7-methoxy-4-oxoquinoline-3-carboxylic acid] was tested, and the YAP/TEAD condensates [1] was “remained intact; also recorded: but not the YAP/TEAD4 condensates”, the “access of YAP to target genes (association of YAP on YAP target regions)” value [2] was “excluding the possibility that EVG may block the access of YAP to target genes” and the “SRC-1's binding with YAP and TEAD” value [3] was “did not affect”. For the same molecule, the “anti-proliferative effects after inducible knockdown of SRC-1” value [4] was “partially resistant” and the “migratory activity at the outer colony border” value [5] was “dramatically inhibited”.

From patent US20240125768A1, “METHODS FOR MODULATING A SRC-1 CONDENSATE” (ETERN BIOPHARMA (SHANGHAI) CO., LTD., priority 2021, published 2024)
